Like-named read-outs stand apart in the source and are kept apart here.
What was measured:
AGS = test: Cell proliferation experiment (CellTiter-Glo); format: cell-based; settings: read-out: IC50(nM) AGS
SW620 = test: Cell proliferation experiment (CellTiter-Glo); format: cell-based; settings: read-out: IC50(nM) SW620
H358 = test: Cell proliferation experiment (CellTiter-Glo); format: cell-based; settings: H358, KRAS mutation type G12C, 96 h incubation
KRAS G12D [1] = target: T1, KRAS G12D (Homo sapiens, UniProt P01116, G12D)
T1 sequence (P01116 1-188 isoform P01116-2 G12D): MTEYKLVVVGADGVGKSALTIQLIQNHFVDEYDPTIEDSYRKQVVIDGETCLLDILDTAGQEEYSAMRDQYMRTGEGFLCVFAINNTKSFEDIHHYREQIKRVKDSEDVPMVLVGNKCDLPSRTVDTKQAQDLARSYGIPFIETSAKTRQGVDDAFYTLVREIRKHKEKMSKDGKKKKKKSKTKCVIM

in vitro [2] = settings: human, microsomes
in vitro [3] = settings: rat, microsomes
in vitro [4] = settings: mouse, microsomes
in vitro [5] = settings: dog, microsomes
KRAS G12D [6] = target: T1, KRAS G12D; test: cell-based; settings: AGS
[7] = PK study in ICR mice (whole blood); format: in vivo; settings: Female ICR mice, IV 1 mg/kg
Procedure: Example 8 PK Study of Compound in ICR Mice (whole blood)
The compound was mixed with the vehicle (10% DMSO / 5% Solutol HS 15 / 85% saline), vortexed, and sonicated to prepare a clear solution at 0.2 mg/mL. Female ICR mice aged 6 to 7 weeks (non-fasted) were intravenously administered the compound. Whole blood was collected at specified time points. Drug concentration was analyzed by LC-MS/MS, and pharmacokinetic parameters were calculated using Phoenix WinNonlin software (Pharsight Corporation, USA). Table 11 Mouse PK Data for Intravenous Compound Monotherapy

In the case of “(2S,4R)-1-((S)-2-(4-(5-(7-((7-(8-ethyl-7-fluoro-3-hydroxynaphthalen-1-yl)-8-fluoro-4-((R)-3-hy droxy-3-methylpiperidin-1-yl)pyrido[4,3-d]pyrimidin-2-yl)oxy)methyl)cyclopropyl)methyl)-2,7-azaspiro[3.5]nonan-2-yl)pyrazin-2-yl)-1H-1,2,3-triazol-1-yl)-3-methylbutanoyl)-4-hydroxy-N-(( R)-2-hydroxy-1-(4-(4-methylthiazol-5-yl)phenyl)ethyl)pyrrolidine-2-carboxamide [Compound 170]”, the IC50 (AGS) is reported as 3.6 nM, the IC50 (SW620) is reported as 19 nM and the IC50 (H358) is reported as 8.5 nM.

For CCc1c(F)ccc2cc(O)cc(-c3ncc4c(N5CCC[C@@](C)(O)C5)nc(OCC5(CN6CCC7(CC6)CN(c6ccc(-c8cn([C@H](C(=O)N9C[C@H](O)C[C@H]9C(=O)N[C@@H](C)c9ccc(-c%10scnc%10C)cc9)C(C)C)nn8)cc6)C7)CC5)nc4c3F)c12 [Compound 75], the IC50 (AGS; Homo sapiens, AGS, 96 h) was 11 nM, the IC50 (SW620; Homo sapiens, SW-620, 96 h) was 122 nM and the IC50 (H358; Homo sapiens, NCI-H358) was 40 nM. The DC50 (KRAS G12D [1]) was 0.024 µM, the microsomal CLint (in vitro [2]) was 1 µL/min/mg and the microsomal CLint (in vitro [3]) was 20.7 µL/min/mg. The microsomal CLint (in vitro [4]) was 8.6 µL/min/mg, the microsomal CLint (in vitro [5]) was 22.1 µL/min/mg and the Dmax (KRAS G12D [6]) was 95%.

For C#Cc1c(F)ccc2cc(O)cc(-c3ncc4c(N5CCCn6nc(C(=O)N(C)C)cc6C5)nc(OCC5(CN6CCC(COc7ccc(C(=O)N[C@H](C(=O)N8C[C@H](O)C[C@H]8C(=O)N[C@@H](C)c8ccc(-c9scnc9C)cc8)C(C)(C)C)cc7)CC6)CC5)nc4c3F)c12 [Compound 89], the IC50 (AGS) was 193 nM, the IC50 (SW620) was 1420 nM and the IC50 (H358) was 635 nM.

CCc1c(F)ccc2cc(O)cc(-c3ncc4c(N5CCC[C@@](C)(O)C5)nc(OCC5(CN6CCC(OCc7ccc(-c8cn([C@H](C(=O)N9C[C@H](O)C[C@H]9C(=O)N[C@@H](C)c9ccc(-c%10scnc%10C)cc9)C(C)C)nn8)cc7)CC6)CC5)nc4c3F)c12 [Compound 93] showed an IC50 (AGS; Homo sapiens, AGS, 96 h) of 6.8 nM, an IC50 (SW620; Homo sapiens, SW-620, 96 h) of 86 nM and an IC50 (H358; Homo sapiens, NCI-H358) of 20 nM. It also gave a DC50 (KRAS G12D [1]) of 0.011 µM, a microsomal CLint (in vitro [2]) of 23.5 µL/min/mg and a microsomal CLint (in vitro [3]) of 10.9 µL/min/mg. It also gave a microsomal CLint (in vitro [4]) of 8.3 µL/min/mg, a microsomal CLint (in vitro [5]) of 28.5 µL/min/mg and a Dmax (KRAS G12D [6]) of 95%.

Work on “(2S,4R)-1-((2R)-2-(3-(3-(4-((1-((7-(8-ethyl-7-fluoro-3-hydroxynaphthalen-1-yl)-8-fluoro-4-((R) 3-hydroxy-3-methylpiperidin-1-yl)pyrido[4,3-d]pyrimidin-2-yl)oxy)methyl)cyclopropyl)methyl) piperazin-1-yl)pyrrolidin-1-yl)isoxazol-5-yl)-3-methylbutanoyl)-4-hydroxy-N-((S)-1-(4-(4-meth ylthiazol-5-yl)phenyl)ethyl)pyrrolidine-2-carboxamide [Compound 166]” yielded an IC50 (AGS) of 4.9 nM, an IC50 (SW620) of 33 nM and an IC50 (H358) of 21 nM.

Work on CCc1c(F)ccc2cc(O)cc(-c3ncc4c(N5CCC[C@@](C)(O)C5)nc(OCC5(CN6CCN(C7CN(c8cnc(-c9cn([C@H](C(=O)N%10C[C@H](O)C[C@H]%10C(=O)N[C@@H](C)c%10ccc(-c%11scnc%11C)cc%10)C(C)C)nn9)cn8)C7)CC6)CC5)nc4c3F)c12 [Compound 183] yielded an IC50 (AGS) of 3 nM, an IC50 (SW620) of 11 nM and an IC50 (H358) of 12 nM.

With C=C1CN2[C@@H](COC(=O)N3CCC4(CC3)CC(c3cn([C@H](C(=O)N5C[C@H](O)C[C@H]5C(=O)N[C@@H](C)c5ccc(-c6scnc6C)cc5)C(C)C)nn3)C4)CC[C@@]2(COc2nc(N3CCC[C@@](C)(O)C3)c3cnc(-c4cc(O)cc5ccc(F)c(CC)c45)c(F)c3n2)C1 [Compound 143] the IC50 (AGS; Homo sapiens, AGS, 96 h) was 16 nM, the IC50 (SW620; Homo sapiens, SW-620, 96 h) was 58 nM and the IC50 (H358; Homo sapiens, NCI-H358) was 24 nM. For the same compound, the DC50 (KRAS G12D [1]) was 0.012 µM and the Dmax (KRAS G12D [6]) was 95%.

With CCc1c(F)ccc2cc(O)cc(-c3ncc4c(N5CCC[C@@](C)(O)C5)nc(OCC5(CN6CCC(Oc7cnc(-c8cn([C@H](C(=O)N9C[C@H](O)C[C@H]9C(=O)N[C@@H](CO)c9ccc(-c%10scnc%10C)cc9)C(C)C)nn8)cn7)CC6)CC5)nc4c3F)c12 [Compound 178] the IC50 (AGS) was 2.5 nM, the IC50 (SW620) was 9.4 nM and the IC50 (H358) was 5.7 nM.

Compound CCc1c(F)ccc2cc(O)cc(-c3ncc4c(N5CCC[C@@](C)(O)C5)nc(OCC5(CN6CCC(Oc7cc(-c8cn([C@H](C(=O)N9C[C@H](O)C[C@H]9C(=O)N[C@@H](C)c9ccc(-c%10scnc%10C)cc9)C(C)C)nn8)ccn7)CC6)CC5)nc4c3F)c12 [Compound 136] has an IC50 (AGS; Homo sapiens, AGS, 96 h) of 10 nM, an IC50 (SW620; Homo sapiens, SW-620, 96 h) of 53 nM and an IC50 (H358; Homo sapiens, NCI-H358) of 6.6 nM. It also gave a DC50 (KRAS G12D [1]) of 0.014 µM, a microsomal CLint (in vitro [2]) of 19.6 µL/min/mg and a microsomal CLint (in vitro [3]) of 8 µL/min/mg. For the same compound, the microsomal CLint (in vitro [4]) was 22.1 µL/min/mg, the microsomal CLint (in vitro [5]) was 20.8 µL/min/mg and the Dmax (KRAS G12D [6]) was 95%.

With CCc1c(F)ccc2cc(O)cc(-c3ncc4c(N5CCCC(C)(O)C5)nc(OCC5(CN6CCC(COc7ccc(C(=O)N[C@H](C(=O)N8C[C@H](O)C[C@H]8C(=O)N[C@@H](C)c8ccc(-c9scnc9C)cc8)C(C)(C)C)cc7)CC6)CC5)nc4c3F)c12 (stereo partly drawn) [Compound 1, (2S,4R)-1-((2S)-2-(4-((1-((1-(((7-(8-ethyl-7-fluoro-3-hydroxynaphthalen-1-yl)-8-fluoro-4-(3-hydroxy-3-methylpiperidin-1-yl)pyrido[4,3-d]pyrimidin-2-yl)oxy)methyl)cyclopropyl)methyl)piperidin-4-yl)methoxy)benzamido)-3,3-dimethylbutanoyl)-4-hydroxy-N-((S)-1-(4-(4-methylthiazol-5-yl)phenyl)ethyl)pyrrolidine-2-carboxamide] the IC50 (AGS; Homo sapiens, AGS, 96 h) was 109 nM and the IC50 (H358; Homo sapiens, NCI-H358) was 1080 nM.

With CCc1c(F)ccc2cc(O)cc(-c3ncc4c(N5CCC[C@@](C)(O)C5)nc(OC[C@]56CCCN5[C@@H](COC(=O)N5CCC7(CC5)CC(C(=O)N[C@H](C(=O)N5C[C@H](O)C[C@H]5C(=O)N[C@@H](C)c5ccc(-c8scnc8C)cc5)C(C)(C)C)C7)CC6)nc4c3F)c12 [Compound 88] the IC50 (AGS; Homo sapiens, AGS, 96 h) was 33 nM, the IC50 (SW620; Homo sapiens, SW-620, 96 h) was 199 nM and the IC50 (H358; Homo sapiens, NCI-H358) was 90 nM. For the same compound, the “Cl_obs” value [7] was 0.242 L/h/kg, the “Vss_obs” value [7] was 0.780 L/kg and the AUC(0-t) ([7]; mouse) was 4.11 µg·h/mL. The half-life ([7]; mouse) was 5.61 h, the C0 ([7]; mouse, read-out: C0) was 5 µg/mL and the microsomal CLint (in vitro [2]) was 13.4 µL/min/mg. For the same compound, the microsomal CLint (in vitro [3]) was 10.1 µL/min/mg, the microsomal CLint (in vitro [4]) was 24.5 µL/min/mg and the microsomal CLint (in vitro [5]) was 13.3 µL/min/mg.

“(2S,4R)-1-((S)-2-(4-(5-((1-((1-(((7-(8-ethyl-7-fluoro-3-hydroxynaphthalen-1-yl)-8-fluoro-4-((R)-3-hydroxy-3-methylpiperidin-1-yl)pyrido[4,3-d]pyrimidin-2-yl)oxy)methyl)cyclopropyl)methyl) piperidin-4-yl)oxy)pyrazin-2-yl)-1H-1,2,3-triazol-1-yl)-3-methylbutanoyl)-4-hydroxy-N-((1R,2R )-2-hydroxy-3-methyl-1-(4-(4-methylthiazol-5-yl)phenyl)butyl)pyrrolidine-2-carboxamide [Compound 184]” showed an IC50 (AGS) of 2.7 nM, an IC50 (SW620) of 11 nM and an IC50 (H358) of 15 nM.

CCc1c(F)ccc2cc(O)cc(-c3ncc4c(N5CCC[C@@](C)(O)C5)nc(OCC5(CN6CCC7(CC6)CN(Cc6cnc(-c8cn([C@H](C(=O)N9C[C@H](O)C[C@H]9C(=O)N[C@@H](C)c9ccc(-c%10scnc%10C)cc9)C(C)C)nn8)cn6)C7)CC5)nc4c3F)c12 [Compound 189] showed an IC50 (AGS) of 2.9 nM, an IC50 (SW620) of 13 nM and an IC50 (H358) of 15 nM.
